Assay results: ChEMBL document CHEMBL1667817, “Design, synthesis and biological evaluation of new arylpiperazine derivatives bearing a flavone moiety as α1-adrenoceptor antagonists” (Bioorg Med Chem Lett, 2011)

Target: T1, Adrenergic receptor alpha-1 (Rattus norvegicus, UniProt P15823+P23944+P43140)
T1 sequence (P15823 whole entry): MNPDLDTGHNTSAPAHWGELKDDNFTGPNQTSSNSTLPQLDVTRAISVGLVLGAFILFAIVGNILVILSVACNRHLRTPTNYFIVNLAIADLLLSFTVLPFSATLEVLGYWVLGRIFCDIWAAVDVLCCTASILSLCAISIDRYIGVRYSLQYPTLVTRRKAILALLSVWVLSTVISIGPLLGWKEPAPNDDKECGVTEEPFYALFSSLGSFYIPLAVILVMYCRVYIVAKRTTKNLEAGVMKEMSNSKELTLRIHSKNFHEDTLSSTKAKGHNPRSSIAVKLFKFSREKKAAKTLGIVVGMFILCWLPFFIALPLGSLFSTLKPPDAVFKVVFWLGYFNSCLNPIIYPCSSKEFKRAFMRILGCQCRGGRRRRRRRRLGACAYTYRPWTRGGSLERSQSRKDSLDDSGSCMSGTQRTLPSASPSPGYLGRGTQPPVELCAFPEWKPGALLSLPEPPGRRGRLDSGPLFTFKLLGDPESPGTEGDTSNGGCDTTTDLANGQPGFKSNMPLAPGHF
T1 sequence (P23944 whole entry): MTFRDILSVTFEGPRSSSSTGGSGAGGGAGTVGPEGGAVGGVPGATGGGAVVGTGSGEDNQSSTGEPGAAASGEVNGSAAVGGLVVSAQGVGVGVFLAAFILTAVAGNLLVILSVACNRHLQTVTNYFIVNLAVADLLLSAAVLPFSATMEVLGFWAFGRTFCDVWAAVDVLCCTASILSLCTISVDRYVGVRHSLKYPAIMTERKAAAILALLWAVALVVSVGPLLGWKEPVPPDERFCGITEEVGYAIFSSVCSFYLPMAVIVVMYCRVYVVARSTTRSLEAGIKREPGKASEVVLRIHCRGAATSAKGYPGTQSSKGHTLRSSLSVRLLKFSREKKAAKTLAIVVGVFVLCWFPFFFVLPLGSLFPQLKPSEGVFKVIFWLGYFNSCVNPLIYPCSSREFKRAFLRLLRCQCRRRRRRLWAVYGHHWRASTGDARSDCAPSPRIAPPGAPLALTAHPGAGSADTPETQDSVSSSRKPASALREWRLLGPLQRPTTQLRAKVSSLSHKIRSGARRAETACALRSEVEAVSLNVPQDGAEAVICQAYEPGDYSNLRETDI
T1 sequence (P43140 whole entry): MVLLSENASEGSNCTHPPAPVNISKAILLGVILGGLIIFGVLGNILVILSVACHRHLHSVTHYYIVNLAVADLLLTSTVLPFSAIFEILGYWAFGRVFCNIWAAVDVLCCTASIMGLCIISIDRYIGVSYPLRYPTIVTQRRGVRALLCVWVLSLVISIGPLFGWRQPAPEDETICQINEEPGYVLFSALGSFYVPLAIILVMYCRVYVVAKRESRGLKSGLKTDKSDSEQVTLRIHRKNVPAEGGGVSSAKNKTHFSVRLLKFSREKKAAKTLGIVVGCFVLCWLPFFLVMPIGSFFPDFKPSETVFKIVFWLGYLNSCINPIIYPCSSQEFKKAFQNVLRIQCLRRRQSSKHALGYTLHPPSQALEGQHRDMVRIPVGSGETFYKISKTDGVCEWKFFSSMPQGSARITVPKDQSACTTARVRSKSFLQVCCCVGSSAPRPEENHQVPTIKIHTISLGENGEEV
Experiment: Antagonist activity at alpha1-adrenoceptor in rat anococcygeal muscle assessed as inhibition of phenylephrine-induced contraction
Format: functional

| SMILES | pA2 |
| --- | --- |
| O=c1cc(-c2ccc(Cl)cc2)oc2cc(O)ccc12 | 6.845 |
| O=c1cc(-c2ccccc2)oc2cc(OCCN3CCN(c4ccccc4)CC3)ccc12 | 8.526 |
| O=c1cc(-c2ccccc2)oc2cc(OCCCN3CCN(c4ccccc4)CC3)ccc12 | 8.177 |
| O=c1cc(-c2ccccc2)oc2cc(OCCCCN3CCN(c4ccccc4)CC3)ccc12 | 8.333 |
| Cc1ccc(N2CCN(CCOc3ccc4c(=O)cc(-c5ccccc5)oc4c3)CC2)cc1 | 8.647 |
| Cc1ccc(N2CCN(CCCOc3ccc4c(=O)cc(-c5ccccc5)oc4c3)CC2)cc1 | 7.684 |
| Cc1ccc(N2CCN(CCCCOc3ccc4c(=O)cc(-c5ccccc5)oc4c3)CC2)cc1 | 6.709 |
| Cc1ccccc1N1CCN(CCOc2ccc3c(=O)cc(-c4ccccc4)oc3c2)CC1 | 7.383 |
| Cc1ccccc1N1CCN(CCCOc2ccc3c(=O)cc(-c4ccccc4)oc3c2)CC1 | 6.93 |
| Cc1ccccc1N1CCN(CCCCOc2ccc3c(=O)cc(-c4ccccc4)oc3c2)CC1 | 7.71 |
| O=c1cc(-c2ccc(Cl)cc2)oc2cc(OCCN3CCN(c4ccccc4)CC3)ccc12 | 8.579 |
| O=c1cc(-c2ccc(Cl)cc2)oc2cc(OCCCN3CCN(c4ccccc4)CC3)ccc12 | 8.072 |
| O=c1cc(-c2ccc(Cl)cc2)oc2cc(OCCCCN3CCN(c4ccccc4)CC3)ccc12 | 7.914 |
| Cc1ccc(N2CCN(CCOc3ccc4c(=O)cc(-c5ccc(Cl)cc5)oc4c3)CC2)cc1 | 8.93 |
| Cc1ccc(N2CCN(CCCOc3ccc4c(=O)cc(-c5ccc(Cl)cc5)oc4c3)CC2)cc1 | 8.088 |
| Cc1ccc(N2CCN(CCCCOc3ccc4c(=O)cc(-c5ccc(Cl)cc5)oc4c3)CC2)cc1 | 8.498 |
| Cc1ccccc1N1CCN(CCOc2ccc3c(=O)cc(-c4ccc(Cl)cc4)oc3c2)CC1 | 8.207 |
| Cc1ccccc1N1CCN(CCCOc2ccc3c(=O)cc(-c4ccc(Cl)cc4)oc3c2)CC1 | 7.772 |
| Cc1ccccc1N1CCN(CCCCOc2ccc3c(=O)cc(-c4ccc(Cl)cc4)oc3c2)CC1 | 7.471 |
| O=c1cc(-c2ccccc2)oc2cc(OCCBr)ccc12 | 6.897 |
| O=c1cc(-c2ccc(Cl)cc2)oc2cc(OCCBr)ccc12 | 6.925 |
| O=c1cc(-c2ccccc2)oc2cc(OCCCBr)ccc12 | 6.409 |
| O=c1cc(-c2ccc(Cl)cc2)oc2cc(OCCCBr)ccc12 | 6.168 |
| O=c1cc(-c2ccccc2)oc2cc(OCCCCBr)ccc12 | 6.538 |
| O=c1cc(-c2ccc(Cl)cc2)oc2cc(OCCCCBr)ccc12 | 6.368 |
| O=c1cc(-c2ccccc2)oc2cc(O)ccc12 [7-HYDROXYFLAVONE] | 6.609 |
